For assay [1], the system named is NIH3T3vSrc cells. Put plainly: Invadosome rosette formation after Cnx depletion. The assay is classed as cell-based, mouse. The settings on record: siCnx vs siNT5. Here is the method:
siRNA oligonucleotides were purchased from Dharmacon. Endogenous Cnx was depleted by 2 rounds of siRNA transfection. Briefly, cells were first treated by reverse transfection with 25 nM of control siRNA (5′-UGGUUUACAUGUCGACUAA-3′) or siRNA against Cnx (5′-[…]-3′) using Lipofectamine RNAiMAX (ThermoFisher Scientific). The day after, cells were treated again by forward transfection with nM siRNA diluted in Opti-MEM medium (Gibco) and incubated 5 more days before analyzing.
(§1) To better understand this Cnx requirement, we tested whether Cnx depletion affected invadosomes formation, which we measured in NIH3T3vSrc because of the abundance of invadosomes and ease of detection in these cells (FIG. 2E). Given the lack of effect, we hypothesized an effect on Matrix Metalloproteinases and measured MMP2, 9 and 14 abundance by western blot (FIG. 8F). We also measured MMPs activity in a cell lysate and MMP14 localization in invadosomes rosettes after Cnx depletion (FIG. 8G, FIG. 8H).

The test system of the next assay is MMP2, 9 and 14. Put plainly: MMP protein level by western blot after Cnx depletion. The assay is classed as cell-based. The settings on record: NIH3T3vSrc after Cnx depletion. Here is the method:
Cells were washed twice with ice-cold PBS, scraped in ice-cold RIPA lysis buffer (50 mM Tris, 200 mM NaCl, 0.5% NP-40, Complete and PhoStop inhibitor [Roche Applied Science]) and lysed for 30 min at 4° C. Lysates were then clarified by centrifugation at 13000 g for 10 min at 4° C. Lysate concentrations were determined using Bradford reagent (Bio-Rad). Lysates were boiled at 95° C. for 5 min and separated by SDS-PAGE electrophoresis using 4-12% Bis-Tris NuPage gels (Invitrogen) at 180V for 70 min. Samples were then transferred on nitrocellulose membranes using iBlot transfer system (Invitrogen) and blocked using 3% BSA dissolved in TBST (50 mM Tris, 150 mM NaCl and 0.1% Tween-20) for 1 h at room temperature. Membranes were then incubated with primary antibodies (1/1000 diluted in 3% BSA-TBST) overnight at 4° C. […]
as §1
A general note: In western blotting, separated proteins are transferred to a membrane and probed.

The subject of assay [2] is NIH3T3vSrc cells. The assay is described as follows: ECM degradation assay, NIH3T3vSrc on rat tail ECM. Type of assay: cell-based, mouse. The settings on record: for ECM degradation: 1 mM GSH supplemented, or GPx and H2O2, vs untreated cells. On the procedure:
(§2) Gelatin (#G1393, Sigma) was first coupled to 5-carboxy-X-rhodamine succinimidyl ester (#C-6125, ThermoFisher Scientific). Sterile coverslips were coated with gelatin for 20 min, then fixed with 0.5% glutaraldehyde (#15960, Electron Microscopy Sciences) for 40 min. After washing, a layer of 0.5 mg/ml type I collagen (#354236 rat tail, Corning) was coated onto these gelatin coverslips and incubated 4 h at 37° C. before cell seeding. Cells were incubated overnight before fixation and staining. At least 20 images were acquired for each condition, experiments were done in 3 biological replicates. The area of degradation was quantified using ImageJ and normalized to the number of nuclei in each image. To study the involvement of GSH in collagen disulfide bond reduction, cells were seeded on red gelatin and collagen I coated coverslips to proceed to ECM degradation assay. Cells were incubated 2 h to adhere and where then incubated with 1 mM L-gluthatione reduced (GSH #4251, Sigma Aldrich) overnight before fixation. For the opposite experiment, cells were seeded into red gelatin and collagen I coated coverslips, incubated 2 h to adhere and treated with 10 mg GPx1 (SRP-8010, Sigma Aldrich) and H2O2 every 30 min for 6 hours before fixation. ECM degradation quantification was performed as described above. siRNA oligonucleotides were purchased from Dharmacon. Endogenous Cnx was depleted by 2 rounds of siRNA transfection. Briefly, cells were first treated by reverse transfection with 25 nM of control siRNA ([NT]) or siRNA against [NT]) using Lipofectamine RNAiMAX (ThermoFisher Scientific). The day after, cells were treated again by forward transfection with nM siRNA diluted in Opti-MEM medium (Gibco) and incubated 5 more days before analyzing. Since GALA stimulates ECM degradation and Cnx is present in the responsible subcellular structures, we next asked whether surface Cnx is involved in this activity. […] We quantified ECM degradative activity by measuring the loss of fluorescent gelatin using automated image analysis (FIG. 8C). […]

Assay [3] has as its system NIH3T3vSrc cells. The assay is described as follows: Cell-mediated ECM disulfide bond reduction (NEM / OX133 staining). The assay is classed as cell-based, mouse. Particulars: NIH3T3vSrc on rat tail ECM, GM6001 and NEM, 16 hours; Cnx depleted vs control cells. An excerpt: In the ER, the Cnx-ERp57 complex mediates the formation and isomerization of disulfide bonds in neo-synthesized proteins^40. To explain the surprising requirement of the same complex for matrix degradation, we hypothesized it could mediate the reduction of disulfide bonds in extracellular ECM fibers. To reveal disulfide bonds in ECM preparations, we used the reducing agent tris(2-carboxyethyl)phosphine (TCEP), followed by reaction with N-ethylmaleimide (NEM). […] To test whether disulfide bonds are present in liver ECM, we prepared decellularized mouse liver tissue. The decellularized matrix presented as a meshwork with a diamond-shaped pattern, the fibers staining for Collagen I, III, IV, and fibronectin (FIGS. 4B, FIG. 9A, FIG. 9B). […] We also tested the commercially-sourced liver porcine ECM and the rat tail connective tissue and obtained in both cases an abundant staining with OX133 after TECP/NEM treatment (FIG. 9C). This staining was entirely dependent on TCEP and NEM. In all cases, most of the OX133 signal colocalized with collagen fibers.
To test if cells are able to reduce these disulfide bonds, the actively degrading NIH3T3vSrc cells were sparsely seeded on rat tail ECM. The cells were treated with the MMP inhibitor GM6001 to prevent collagen degradation. NEM was then added to reveal reduced cysteines and after 16 hours, coverslips were fixed and labeled. […]

The next assay has as its system MMP14. The assay is described as follows: MMP14 localization in invadosome rosettes (immunofluorescence). The settings on record: NIH3T3vSrc after Cnx depletion. Type of assay: cell-based. On the procedure: Cells were seeded on coverslips, at 70 000 cells per well in a 24-well plate (ThermoFisher Scientific) and incubated overnight. Cells were fixed with 4% paraformaldehyde (PFA) in Phosphate Buffered Saline (PBS, Gibco) for 10 min, rinsed 3 times with PBS and then permeabilized with 0.2% Triton X-100 for 10 min. Cells were incubated with primary antibodies (1/100 diluted in 2% FBS-PBS) for 1 h 30 at room temperature, rinsed 3 times with PBS and incubated with secondary antibodies (1/200 diluted in 2% FBS-PBS) for 40 min before being rinsed and mounted on microscope slides.
as §1

The test system of a further assay is MMPs. The assay is described as follows: FRET-based MMP activity assay on cell lysates. Type of assay: biochemical. Particulars: MDA ER-G2 after Cnx depletion. On the procedure: In order to quantify total MMP activity, we used a FRET-based MMP activity assay kit (ab112147), on cell lysates, according to the manufacturer's protocol. Fluorescence was read at 540 nm using a microplate reader (Tecan) every 5 min for 2 h.
as §1

A further assay concerns MDA ER-G2 cells. The assay is described as follows: ECM degradation assay, MDA ER-G2 on rat tail ECM. Type of assay: cell-based, human. Particulars: for ECM degradation: MDA ER-G2, 1 mM GSH supplemented, or GPx and H2O2, vs untreated cells; for ECM degradation after ECM pre-treatment: ECM pre-treated before cell seeding. On the procedure: as §2, with “image. To chemically reduce collagen disulfide bonds before cell seeding and ECM degradation assay, a 0.5 mg/ml type I collagen matrix was coated onto red gelatin coverslips and incubated 4 h at 37° C. for polymerization. Collagen was incubated with 2.5 mM TCEP (#64, 654-7, Sigma Aldrich) for 30 min at room temperature, rinsed 3 times with 1% BSA in PBS, and incubated with 5 mM N-ethylmaleimide (NEM #23030, ThermoFisher Scientific) for 30 min at room temperature. Coverslips were gently rinsed 3 more times with 1% BSA in PBS before cell seeding and ECM degradation assay.” for “image.”, “activity. To measure ECM degradation, we used a sandwich of fluorescently labeled gelatin overlaid with native ECM of different sources.” for “activity.”

As to 5′-CAAGAGUGGUCCUAGGAGAUU-3′ [siCnx], in the assay with NIH3T3vSrc cells [1], the “rosette formation (number of rosettes per cell and percentage of cells making rosettes)” value is “non significant”. Further, the “MMP2, 9 and 14 abundance by western blot” value in the assay on MMP2, 9 and 14 is recorded as “could not detect any difference”. Further, in the assay with NIH3T3vSrc cells [2] (siRNA depletion vs control siRNA (siNT5), listed as siRNA targeting Cnx), the matrix degradation result is recorded as “similarly reduced ECM degradation”. In addition, the “OX133 staining of ECM (reduced disulfide bonds)” value in the assay on NIH3T3vSrc cells [3] is listed as “significantly reduced”. Moreover, the “MMP14 localization in invadosomes rosettes” value in the assay with MMP14 is recorded as “could not detect any difference”. In addition, the “MMPs activity in a cell lysate” value with MMPs is on record as “could not detect any difference”.
On to `N[C@@H](CCC(=O)N[C@@H](CS)C(=O)NCC(=O)O)C(=O)O` [GSH, L-gluthatione reduced], for which the ECM degradation entry in the assay on MDA ER-G2 cells and in the assay with NIH3T3vSrc cells [2] was “more efficient at ECM degradation” each time.
Regarding `Cl.O=C(O)CCP(CCC(=O)O)CCC(=O)O` [TCEP, Tris(2-carboxyethyl)phosphine hydrochloride], the “ECM degradation after ECM pre-treatment” value in the assay with MDA ER-G2 cells (MDA ER-G2 control cells) is “stimulatory effect on ECM degradation”; in the assay with MDA ER-G2 cells (MDA ER-G2 depleted of Cnx or ERp57), “completely reversed the inhibitory effect of Cnx depletion”.

B1: GPx: GSH peroxidase GPx1 (SRP-8010, Sigma Aldrich), given to cells together with H2O2 (protein, UniProt P00435 1-205, looked up)
Glutathione peroxidase 1: MCAAQRSAAALAAAAPRTVYAFSARPLAGGEPFNLSSLRGKVLLIENVASLUGTTVRDYTQMNDLQRRLGPRGLVVLGFPCNQFGHQENAKNEEILNCLKYVRPGGGFEPNFMLFEKCEVNGEKAHPLFAFLREVLPTPSDDATALMTDPKFITWSPVCRNDVSWNFEKFLVGPDGVPVRRYSRRFLTIDIEPDIETLLSQGASA
Turning to B1, the ECM degradation result in the assay on MDA ER-G2 cells and in the assay with NIH3T3vSrc cells [2] was “less efficient ECM degradation” in each case.
